ChEMBL document CHEMBL1125648, “Quinazoline antifolates inhibiting thymidylate synthase: 4-thio-substituted analogues” (J Med Chem, 1991)

test system: L1210; assay: Growth inhibition of L1210 cells in culture; type: functional, cell-based; details: Mus musculus

| IC50 | Compound |
| --- | --- |
| 7.4 µM | C#CCN(Cc1ccc2ncnc(S)c2c1)c1ccc(C(=O)NC(CCC(=O)O)C(=O)O)cc1 (stereo not given) |
| 15 µM | CCN(Cc1ccc2ncnc(SC)c2c1)c1ccc(C(=O)NC(CCC(=O)O)C(=O)O)cc1 (stereo not given) |
| 8 µM | C#CCN(Cc1ccc2nc(C)nc(S)c2c1)c1ccc(C(=O)NC(CCC(=O)O)C(=O)O)cc1 (stereo not given) |
| 31 µM | CCN(Cc1ccc2ncnc(S)c2c1)c1ccc(C(=O)NC(CCC(=O)O)C(=O)O)cc1 (stereo not given) |
| 18 µM | C#CCN(Cc1ccc2nc(N)nc(S)c2c1)c1ccc(C(=O)NC(CCC(=O)O)C(=O)O)cc1 (stereo not given) |
